In US20260308145A1, “CDK2 INHIBITORS AND METHODS OF USING SAME” (Shenzhen lonova Life Science Co., Ltd., priority 2023, published 2026):

Columns and labels:
Format in all cases: biochemical
CDK1/cyclinB1 = biological target: T1, CDK1/cyclinB1 (Homo sapiens, UniProt P06493); test: Cyclin-dependent kinase activity assay (continuous ATP coupling assay), CDK1/cyclinB1; settings: CDK1/cyclinB1 10 nM, ATP 200 μM, Histone1 copeptide 100 μM, 15 min preincubation, pH 7.5, 1% DMSO
T1 construct: purchased Carna Biosciences 04-102
Procedure: (§1) Cyclin-dependent kinase activity assay was measured by continuous ATP coupling assay in which ADP generated by kinase catalyzed phosphorylation was converted back to ATP by consuming phosphoenolpyruvate (PEP) and NADH catalyzed by pyruvate kinase/lactate dehydrogenase (PK/LDH). The assay compositions (see, Table 1) consist of one of the kinases, including CDK1/cyclinB1, CDK2/cyclinE1, CDK4/cyclinD3, and CDK6/cyclinD3 at the designated concentration, ATP at the corresponding Km of the kinase, copeptide and the ATP coupling system of PEP, NADH and PK/LDH. The assay was conducted in a reaction buffer of 20 mM Tris (pH 7.5) with 50 mM NaCl, 0.5 mM DTT and 0.04% BSA, and results were monitored continuously by fluorescence decrease of NADH with excitation at 340 nm and emission at 460 nm. Linear regression of the resulting reaction time traces gave reaction velocities.
(§2) For inhibition assay, compounds were first serial diluted in a 1:3 ratio from 10 μM to 0.05 nM using 10× reaction buffer. One of the CDK kinase was then introduced to compounds solution and incubated for 15 min. Finally, the compositions of ATP coupling system were introduced to the resulting solution to initiate the reaction. The final reaction mixture was in 1× reaction assay buffer with 1% DMSO. The half-maximal inhibition concentrations (IC50) for compounds were determined by fitting the plots of reaction velocity against compound concentration with 4-variable IC50 equation. The inhibition constants (Ki) were determined by fitting the same plots with quadratic/Morrison equation. Data were analyzed using commercially available software Graphpad Prism.
(§3) Exemplary results are presented as calculated IC50 values. • A: IC50≤10 nM • B: IC50>10 nM and IC50<100 nM • C: IC50≥100 nM

CDK2/cyclinE1 = biological target: T2, CDK2/cyclinE1 (Homo sapiens, UniProt P24941); test: Cyclin-dependent kinase activity assay (continuous ATP coupling assay), CDK2/cyclinE1; settings: CDK2/cyclinE1 5 nM, ATP 300 μM, Rb copeptide 100 μM, 15 min preincubation, pH 7.5, 1% DMSO
T2 construct: purchased Carna Biosciences 04-165
Procedure: as §1, §2, §3

CDK4/cyclinD3 = biological target: T3, CDK4/cyclinD3 (Homo sapiens, UniProt P11802); test: Cyclin-dependent kinase activity assay (continuous ATP coupling assay), CDK4/cyclinD3; settings: CDK4/cyclinD3 60 nM, ATP 500 μM, Rb copeptide 500 μM, 15 min preincubation, pH 7.5, 1% DMSO
T3 construct: purchased Carna Biosciences 04-105
Procedure: as §1, §2, §3

CDK6/cyclinD3 = biological target: T4, CDK6/cyclinD3 (Homo sapiens, UniProt Q00534); test: Cyclin-dependent kinase activity assay (continuous ATP coupling assay), CDK6/cyclinD3; settings: CDK6/cyclinD3 25 nM, ATP 500 μM, Rb copeptide 500 μM, 15 min preincubation, pH 7.5, 1% DMSO
T4 construct: purchased Carna Biosciences 04-107
Procedure: as §1, §2, §3

T4 sequence (Q00534 whole entry): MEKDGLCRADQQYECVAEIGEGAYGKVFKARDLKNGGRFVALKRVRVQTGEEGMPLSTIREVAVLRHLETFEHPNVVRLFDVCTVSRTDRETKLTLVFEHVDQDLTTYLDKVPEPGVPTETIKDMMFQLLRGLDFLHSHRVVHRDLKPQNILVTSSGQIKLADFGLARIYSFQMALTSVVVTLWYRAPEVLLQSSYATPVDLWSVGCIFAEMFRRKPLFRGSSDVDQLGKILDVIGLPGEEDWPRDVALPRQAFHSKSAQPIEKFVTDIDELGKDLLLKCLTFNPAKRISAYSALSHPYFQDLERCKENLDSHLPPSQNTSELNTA
T4 sequence (P30281 whole entry partner): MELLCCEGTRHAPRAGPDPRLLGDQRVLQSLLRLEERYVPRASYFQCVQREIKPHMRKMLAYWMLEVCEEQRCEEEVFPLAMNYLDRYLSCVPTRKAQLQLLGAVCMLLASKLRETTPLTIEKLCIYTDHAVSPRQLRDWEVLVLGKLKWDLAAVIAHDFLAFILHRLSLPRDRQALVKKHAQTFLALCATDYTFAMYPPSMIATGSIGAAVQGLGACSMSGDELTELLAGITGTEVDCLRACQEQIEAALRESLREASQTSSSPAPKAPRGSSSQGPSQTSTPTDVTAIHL
T3 sequence (P11802 whole entry): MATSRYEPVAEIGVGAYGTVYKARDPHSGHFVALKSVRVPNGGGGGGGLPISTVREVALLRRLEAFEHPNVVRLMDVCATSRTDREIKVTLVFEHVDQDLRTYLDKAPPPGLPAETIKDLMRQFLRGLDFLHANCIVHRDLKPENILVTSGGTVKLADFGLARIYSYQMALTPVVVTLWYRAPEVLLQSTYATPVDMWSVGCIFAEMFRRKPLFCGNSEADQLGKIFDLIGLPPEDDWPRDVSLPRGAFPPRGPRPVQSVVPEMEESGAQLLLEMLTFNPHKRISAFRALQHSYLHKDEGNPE
T3 sequence (P30281 whole entry partner): as the sequence (P30281 whole entry partner) above
T1 sequence (P06493 whole entry): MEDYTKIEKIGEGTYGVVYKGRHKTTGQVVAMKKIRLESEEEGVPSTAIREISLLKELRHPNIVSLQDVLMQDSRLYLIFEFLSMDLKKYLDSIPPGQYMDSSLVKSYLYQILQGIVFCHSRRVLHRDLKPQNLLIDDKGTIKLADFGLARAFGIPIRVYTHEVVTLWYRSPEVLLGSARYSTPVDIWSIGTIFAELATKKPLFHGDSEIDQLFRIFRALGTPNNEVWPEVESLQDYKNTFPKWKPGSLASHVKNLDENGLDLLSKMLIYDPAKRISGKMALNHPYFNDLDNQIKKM
T1 sequence (P14635 whole entry partner): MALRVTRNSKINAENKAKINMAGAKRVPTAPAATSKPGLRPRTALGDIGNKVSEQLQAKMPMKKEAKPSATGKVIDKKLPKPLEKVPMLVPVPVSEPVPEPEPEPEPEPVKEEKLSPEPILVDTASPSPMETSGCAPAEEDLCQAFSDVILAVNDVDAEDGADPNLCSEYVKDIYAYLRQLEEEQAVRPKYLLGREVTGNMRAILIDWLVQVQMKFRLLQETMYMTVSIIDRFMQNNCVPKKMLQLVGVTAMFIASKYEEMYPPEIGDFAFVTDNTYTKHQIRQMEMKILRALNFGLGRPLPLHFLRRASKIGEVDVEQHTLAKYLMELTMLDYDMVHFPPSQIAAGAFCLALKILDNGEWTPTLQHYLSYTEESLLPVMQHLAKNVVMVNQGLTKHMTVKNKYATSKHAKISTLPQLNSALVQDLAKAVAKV

CC(O)CNS(=O)(=O)c1ccc(Nc2ncc(C(F)(F)F)c(-n3cccn3)n2)cc1 (stereo not drawn) [Example 110]
IC50 (CDK1/cyclinB1): ≥ 100 nM
IC50 (CDK2/cyclinE1): ≤ 10 nM
IC50 (CDK4/cyclinD3): ≥ 100 nM
IC50 (CDK6/cyclinD3): ≥ 100 nM

CNS(=O)(=O)c1ccc(Nc2ncc(C(F)(F)F)c(-n3cc(C4=CCCC4)cn3)n2)cc1 [Example 12, 4-((4-(4-(cyclopent-1-en-1-yl)-1H-pyrazol-1-yl)-5-(trifluoromethyl)pyrimidin-2-yl)amino)-N-methylbenzenesulfonamide]
IC50 (CDK1/cyclinB1): ≥ 100 nM
IC50 (CDK2/cyclinE1): 10 to 100 nM
IC50 (CDK4/cyclinD3): 10 to 100 nM
IC50 (CDK6/cyclinD3): ≥ 100 nM

[2H]C([2H])([2H])NS(=O)(=O)c1ccc(Nc2ncc(C(F)(F)F)c(-n3cc(CC(C)(C)O)cn3)n2)cc1 [Example 58]
IC50 (CDK1/cyclinB1): 10 to 100 nM
IC50 (CDK2/cyclinE1): ≤ 10 nM
IC50 (CDK4/cyclinD3): 10 to 100 nM
IC50 (CDK6/cyclinD3): 10 to 100 nM

CNS(=O)(=O)c1ccc(Nc2ncc(C(F)(F)F)c(-n3nccc3C3CC3)n2)cc1 [Example 57]
IC50 (CDK1/cyclinB1): ≥ 100 nM
IC50 (CDK2/cyclinE1): 10 to 100 nM
IC50 (CDK4/cyclinD3): ≥ 100 nM
IC50 (CDK6/cyclinD3): ≥ 100 nM

CNS(=O)(=O)c1ccc(Nc2ncc(C(F)(F)F)c(-n3cc([C@H]4CCC[C@@H]4O)cn3)n2)cc1 (single isomer, unassigned) [Example 75]
IC50 (CDK1/cyclinB1): ≥ 100 nM
IC50 (CDK2/cyclinE1): 10 to 100 nM
IC50 (CDK4/cyclinD3): 10 to 100 nM
IC50 (CDK6/cyclinD3): ≥ 100 nM

CNS(=O)(=O)c1ccc(Nc2ncc(C(F)(F)F)c(-n3cc(CC(C)(C)O)c(C)n3)n2)cc1 [Example 70]
IC50 (CDK1/cyclinB1): ≥ 100 nM
IC50 (CDK2/cyclinE1): 10 to 100 nM
IC50 (CDK4/cyclinD3): ≥ 100 nM
IC50 (CDK6/cyclinD3): ≥ 100 nM

CNS(=O)(=O)c1ccc(Nc2ncc(C(F)(F)F)c(-n3cc([C@@H]4CCNC4)cn3)n2)cc1 [Example 94, (S)—N-methyl-4-((4-(4-(pyrrolidin-3-yl)-1H-pyrazol-1-yl)-5-(trifluoromethyl)pyrimidin-2-yl)amino)benzenesulfonamide]
IC50 (CDK1/cyclinB1): 10 to 100 nM
IC50 (CDK2/cyclinE1): ≤ 10 nM
IC50 (CDK4/cyclinD3): 10 to 100 nM
IC50 (CDK6/cyclinD3): ≥ 100 nM

CNS(=O)(=O)c1ccc(Nc2ncc(C(F)(F)F)c(-n3cc(C4CCN(C(C)C)CC4)cn3)n2)cc1 [Example 82]
IC50 (CDK1/cyclinB1): 10 to 100 nM
IC50 (CDK2/cyclinE1): ≤ 10 nM
IC50 (CDK4/cyclinD3): 10 to 100 nM
IC50 (CDK6/cyclinD3): ≥ 100 nM

CNS(=O)(=O)c1ccc(Nc2ncc(C(F)(F)F)c(-n3cc(C4CNC4)cn3)n2)cc1 [Example 15]
IC50 (CDK1/cyclinB1): 10 to 100 nM
IC50 (CDK2/cyclinE1): ≤ 10 nM
IC50 (CDK4/cyclinD3): 10 to 100 nM
IC50 (CDK6/cyclinD3): 10 to 100 nM

CNS(=O)(=O)c1ccc(Nc2ncc(F)c(-n3cc(CC(C)(C)O)cn3)n2)cc1 [Example 62]
IC50 (CDK1/cyclinB1): ≥ 100 nM
IC50 (CDK2/cyclinE1): 10 to 100 nM
IC50 (CDK4/cyclinD3): 10 to 100 nM
IC50 (CDK6/cyclinD3): ≥ 100 nM

CNS(=O)(=O)c1ccc(Nc2ncc(C(F)(F)F)c(-n3cc(C4CCNCC4)cn3)n2)cc1 [Example 13]
IC50 (CDK1/cyclinB1): 10 to 100 nM
IC50 (CDK2/cyclinE1): ≤ 10 nM
IC50 (CDK4/cyclinD3): 10 to 100 nM
IC50 (CDK6/cyclinD3): 10 to 100 nM

CNS(=O)(=O)c1ccc(Nc2ncc(C(F)(F)F)c(-n3cc([C@H]4CC[C@H](O)C4)cn3)n2)cc1 (single isomer, unassigned) [Example 79]
IC50 (CDK1/cyclinB1): 10 to 100 nM
IC50 (CDK2/cyclinE1): ≤ 10 nM
IC50 (CDK4/cyclinD3): 10 to 100 nM
IC50 (CDK6/cyclinD3): 10 to 100 nM

CNS(=O)(=O)c1ccc(Nc2nccc(-n3cc(CC(C)(C)O)cn3)n2)cc1 [Example 67]
IC50 (CDK1/cyclinB1): ≥ 100 nM
IC50 (CDK2/cyclinE1): 10 to 100 nM
IC50 (CDK4/cyclinD3): ≥ 100 nM
IC50 (CDK6/cyclinD3): ≥ 100 nM

O=S(=O)(NCCOC1CC1)c1ccc(Nc2ncc(C(F)(F)F)c(-n3cccn3)n2)cc1 [Example 129]
IC50 (CDK1/cyclinB1): ≥ 100 nM
IC50 (CDK2/cyclinE1): ≥ 100 nM
IC50 (CDK4/cyclinD3): ≥ 100 nM
IC50 (CDK6/cyclinD3): ≥ 100 nM

O=S(=O)(NC1COC1)c1ccc(Nc2ncc(C(F)(F)F)c(-n3cccn3)n2)cc1 [Example 40]
IC50 (CDK1/cyclinB1): ≥ 100 nM
IC50 (CDK2/cyclinE1): ≤ 10 nM
IC50 (CDK4/cyclinD3): ≥ 100 nM
IC50 (CDK6/cyclinD3): ≥ 100 nM

CNS(=O)(=O)c1ccc(Nc2ncc(C(F)(F)F)c(-n3cc([C@@H]4CCC[C@@H]4O)cn3)n2)cc1 (single isomer, unassigned) [Example 76]
IC50 (CDK1/cyclinB1): ≥ 100 nM
IC50 (CDK2/cyclinE1): 10 to 100 nM
IC50 (CDK4/cyclinD3): 10 to 100 nM
IC50 (CDK6/cyclinD3): ≥ 100 nM

CC(C)(O)Cc1cnn(-c2nc(Nc3ccc(S(=O)(=O)NC4CC4)cc3)ncc2C(F)(F)F)c1 [Example 73]
IC50 (CDK1/cyclinB1): ≥ 100 nM
IC50 (CDK2/cyclinE1): 10 to 100 nM
IC50 (CDK4/cyclinD3): 10 to 100 nM
IC50 (CDK6/cyclinD3): 10 to 100 nM

CNS(=O)(=O)c1ccc(Nc2ncc(C(F)(F)F)c(-n3cc(C[C@H](C)O)cn3)n2)cc1 (single isomer, unassigned) [Example 6]
IC50 (CDK1/cyclinB1): 10 to 100 nM
IC50 (CDK2/cyclinE1): ≤ 10 nM
IC50 (CDK4/cyclinD3): 10 to 100 nM
IC50 (CDK6/cyclinD3): 10 to 100 nM

O=S(=O)(NCC1(O)CC1)c1ccc(Nc2ncc(C(F)(F)F)c(-n3cccn3)n2)cc1 [Example 131]
IC50 (CDK1/cyclinB1): ≥ 100 nM
IC50 (CDK2/cyclinE1): ≤ 10 nM
IC50 (CDK4/cyclinD3): ≥ 100 nM
IC50 (CDK6/cyclinD3): ≥ 100 nM

CNS(=O)(=O)c1ccc(Nc2ncc(C(F)F)c(-n3cccn3)n2)cc1 [Example 20]
IC50 (CDK1/cyclinB1): ≥ 100 nM
IC50 (CDK2/cyclinE1): 10 to 100 nM
IC50 (CDK4/cyclinD3): ≥ 100 nM
IC50 (CDK6/cyclinD3): ≥ 100 nM

O=S(=O)(NCCO)c1ccc(Nc2ncc(Cl)c(-n3cccn3)n2)cc1 [Example 117]
IC50 (CDK1/cyclinB1): 10 to 100 nM
IC50 (CDK2/cyclinE1): ≤ 10 nM
IC50 (CDK4/cyclinD3): ≥ 100 nM
IC50 (CDK6/cyclinD3): ≥ 100 nM

CC(C)(O)Cc1cnn(-c2nc(N[C@@H]3CCOC[C@H]3O)ncc2C(F)(F)F)c1 (single isomer, unassigned) [Example 8]
IC50 (CDK1/cyclinB1): ≥ 100 nM
IC50 (CDK2/cyclinE1): ≥ 100 nM
IC50 (CDK4/cyclinD3): 10 to 100 nM
IC50 (CDK6/cyclinD3): 10 to 100 nM

CNS(=O)(=O)c1ccc(Nc2ncc(C)c(-n3cc(CC(C)(C)O)cn3)n2)cc1 [Example 63]
IC50 (CDK1/cyclinB1): ≥ 100 nM
IC50 (CDK2/cyclinE1): 10 to 100 nM
IC50 (CDK4/cyclinD3): 10 to 100 nM
IC50 (CDK6/cyclinD3): 10 to 100 nM

CNS(=O)(=O)c1ccc(Nc2ncc(C(F)(F)F)c(-n3cc([C@@H]4CC[C@@H](O)C4)cn3)n2)cc1 (single isomer, unassigned) [Example 78]
IC50 (CDK1/cyclinB1): ≥ 100 nM
IC50 (CDK2/cyclinE1): ≤ 10 nM
IC50 (CDK4/cyclinD3): 10 to 100 nM
IC50 (CDK6/cyclinD3): 10 to 100 nM

CC(O)Cc1cnn(-c2nc(NC3CCN(S(C)(=O)=O)CC3)ncc2C(F)(F)F)c1 (single isomer, unassigned) [Example 107]
IC50 (CDK1/cyclinB1): 10 to 100 nM
IC50 (CDK2/cyclinE1): ≤ 10 nM
IC50 (CDK4/cyclinD3): 10 to 100 nM
IC50 (CDK6/cyclinD3): 10 to 100 nM

O=S(=O)(NC1CC(F)(F)C1)c1ccc(Nc2ncc(C(F)(F)F)c(-n3cccn3)n2)cc1 [Example 41]
IC50 (CDK1/cyclinB1): ≥ 100 nM
IC50 (CDK2/cyclinE1): 10 to 100 nM
IC50 (CDK4/cyclinD3): ≥ 100 nM
IC50 (CDK6/cyclinD3): ≥ 100 nM

CC(C)(O)Cc1cnn(-c2nc(NC3CCN(S(C)(=O)=O)CC3)ncc2C(F)(F)F)c1 [Example 7]
IC50 (CDK1/cyclinB1): 10 to 100 nM
IC50 (CDK2/cyclinE1): ≤ 10 nM
IC50 (CDK4/cyclinD3): 10 to 100 nM
IC50 (CDK6/cyclinD3): 10 to 100 nM

CNS(=O)(=O)c1ccc(Nc2ncc(C(F)(F)F)c(-n3cc(C4CCN(C)C4)cn3)n2)cc1 (single isomer, unassigned) [Example 96]
IC50 (CDK1/cyclinB1): 10 to 100 nM
IC50 (CDK2/cyclinE1): ≤ 10 nM
IC50 (CDK4/cyclinD3): 10 to 100 nM
IC50 (CDK6/cyclinD3): 10 to 100 nM

CNS(=O)(=O)c1ccc(Nc2ncc(C(F)(F)F)c(-n3cc(C(C)(C)C#N)cn3)n2)cc1 [Example 49, 4-[[4-[4-(1-cyano-1-methyl-ethyl)pyrazol-1-yl]-5-(trifluoromethyl)pyrimidin-2-yl]amino]-N-methyl-benzene sulfonamide]
IC50 (CDK1/cyclinB1): 10 to 100 nM
IC50 (CDK2/cyclinE1): 10 to 100 nM
IC50 (CDK4/cyclinD3): 10 to 100 nM
IC50 (CDK6/cyclinD3): 10 to 100 nM

CNS(=O)(=O)c1ccc(Nc2ncc(C(F)(F)F)c(-n3ncc(CC(C)(C)O)c3C)n2)cc1 [Example 69]
IC50 (CDK1/cyclinB1): ≥ 100 nM
IC50 (CDK2/cyclinE1): 10 to 100 nM
IC50 (CDK4/cyclinD3): ≥ 100 nM
IC50 (CDK6/cyclinD3): ≥ 100 nM
